Like-named read-outs stand apart in the source and are kept apart here.
Key:
Assay type in all cases: in vivo
[1] = tested on: Alopecurus myosuroides Huds.; test: Foliar application test on Alopecurus myosuroides Huds. in upland field condition; conditions: 672 h, fresh weight day 28, read-out: Inhibitory rate (%); for inhibition at 1000 g/ha: dose 1000 g a.i./ha; for inhibition at 2000 g/ha: dose 2000 g a.i./ha
Description: Next, Test Examples of the herbicide compositions according to the invention will be presented. In the following Test Examples, the ingredient (A) was mixed with the ingredient (B), (C), (D), (E) or (F) in practice. As a result, an effect exceeding the effect expected from the effects achieved by using the individual ingredients solely (i.e., a synergistic effect) was observed. The term “synergistic effect” means the effect achieved in the case where the effect achieved by two or more chemicals acting simultaneously exceeds the additive effect expected from the activities of the respective chemicals used solely. The activity expected by using a specific combination of two herbicides (hereinafter called “expectation”) can be calculated in accordance with the following Colby's formula (refer to Colby, S. R., Weeds, 15, p. 20 to 22 (1967)).
(§1) E=X+Y−(X×Y/100) Numerical formula 1
(§2) (In the above formula, E represents an inhibitory rate expected in the case of applying a mixture of p kg/ha of a herbicide A and q kg/ha of another herbicide B. X represents the inhibitory rate achieved by the application of p kg/ha of the herbicide A. Y represents the inhibitory rate achieved by the application of q kg/ha of the herbicide B.)
(§3) When the effect achieved by the mix application in practice exceeds the value E, the combination can be regarded as achieving a synergistic effect. Inhibitory rate was determined in accordance with the following numerical formula 2.
(§4) Inhibitory rate(%)=(1−fresh weight in treated lot/fresh weight in untreated lot)×100 Numerical formula 2
A resin vat having an area of 200 cm^2 was filled with upland soil that was diluvial clay loam soil. After fertilization, Alopecurus myosuroides Huds. was sowed and the seeds were evenly covered with the soil. Then, the plants were grown under controlled conditions in a greenhouse. When the test weeds grew to the 2.0 to 2.5 leaf stage, each herbicide having been diluted at a definite concentration and mixed was uniformly sprayed to the foliage with a small-sized high pressure sprayer. The preparation containing the ingredient (A) alone was prepared in accordance with Formulation Example 1 but adding diatomaceous earth to compensate for the decrease in the ingredient (B), (C) or (F). As the preparations respectively containing the ingredients (B) and (C) alone, marketed flowables were employed. As the preparation containing the ingredient (F) alone, a marketed emulsifiable concentrate was employed. The mixed preparations were prepared by mixing the same. Then, the plants were grown under controlled conditions in the greenhouse. On the day 28 after the application, the fresh weight of the above-ground part of each weed was measured and the inhibitory rate (%) was determined in accordance with Numerical Formula 2 and the expectation was calculated in accordance with Numerical Formula 1, Tables 2 and 3 show the results.

Matricaria inodora L. = test: Foliar application test on Matricaria inodora L. in upland field condition; conditions: day 28
Description: (§5) Next, Test Examples of the herbicide compositions according to the invention will be presented. In the following Test Examples, the ingredient (A) was mixed with the ingredient (B), (C), (D), (E) or (F) in practice. […] The term “synergistic effect” means the effect achieved in the case where the effect achieved by two or more chemicals acting simultaneously exceeds the additive effect expected from the activities of the respective chemicals used solely.
as §1, §2, §3, §4
(§6) A resin vat having an area of 200 cm^2 was filled with upland soil that was diluvial clay loam soil. After fertilization, Stellaria media Villars and Matricaria inodora L. were sowed and the seeds were evenly covered with the soil. Then, the plants were grown under controlled conditions in a greenhouse. When the test weeds grew to the 2.0 to 2.5 leaf stage, each herbicide having been diluted at a definite concentration and mixed was uniformly sprayed to the foliage with a small-sized high pressure sprayer. […] As the preparation containing the ingredient (D) alone, marketed wettable granules were employed. As the preparation containing the ingredient (E) alone, a marketed flowable was employed. The mixed preparations were prepared by mixing the same. Then, the plants were grown under controlled conditions in the greenhouse.

Stellaria media Villars = test: Foliar application test on Stellaria media Villars in upland field condition; conditions: day 28
Description: as §5, §1, §2, §3, §4, §6

[2] = Table 4, single ingredient, dose 5 g a.i./ha
[3] = Table 4, single ingredient, dose 10 g a.i./ha
[4] = Table 5, single ingredient, dose 2 g a.i./ha
[5] = Table 5, single ingredient, dose 4 g a.i./ha

CC(C)c1ccc(NC(=O)N(C)C)cc1 [(B), isoproturon]
inhibition at 1000 g/ha ([1]; Table 2, single ingredient): 69% | inhibition at 2000 g/ha ([1]; Table 2, single ingredient): 90%

CCC(CC)Nc1c([N+](=O)[O-])cc(C)c(C)c1[N+](=O)[O-] [(C), pendimethalin]
inhibition at 1000 g/ha ([1]; Table 2, single ingredient): 16% | inhibition at 2000 g/ha ([1]; Table 2, single ingredient): 22%

COC(=O)c1ccc(C(F)(F)F)nc1S(=O)(=O)[N-]C(=O)Nc1nc(OC)cc(OC)n1.[Na+] [(D), sodium salt of flupyrsulfuron-methyl]
Inhibitory rate (%) (Matricaria inodora L.; [2]): 46% | Inhibitory rate (%) (Matricaria inodora L.; [3]): 67% | Inhibitory rate (%) (Stellaria media Villars; [2]): 77% | Inhibitory rate (%) (Stellaria media Villars; [3]): 85%

COc1ncc(F)c2nc(S(=O)(=O)Nc3c(F)cccc3F)nn12 [(E), florasulam]
Inhibitory rate (%) (Matricaria inodora L.; [4]): 70% | Inhibitory rate (%) (Matricaria inodora L.; [5]): 80% | Inhibitory rate (%) (Stellaria media Villars; [4]): 75% | Inhibitory rate (%) (Stellaria media Villars; [5]): 90%

CCCN(CCC)c1c([N+](=O)[O-])cc(C(F)(F)F)cc1[N+](=O)[O-] [(F), trifluralin]
inhibition at 1000 g/ha ([1]; Table 3, single ingredient): 55% | inhibition at 2000 g/ha ([1]; Table 3, single ingredient): 85%

Source: patent US20090131258A1, “HERBICIDE COMPOSITIONS FOR UPLAND FARMING AND CONTROL METHOD” (priority 2004, published 2009)
